Measured values as given in article PMC7464559, “Synthesis, Optimization, Antifungal Activity, Selectivity, and CYP51 Binding of New 2-Aryl-3-azolyl-1-indolyl-propan-2-ols” (Pharmaceuticals, 2020).
pIC50: −log10 of the molar value. ≈ marks a conversion by molar mass, not a printed value.

Legend:
[1] = biological target: T1, 17α-hydroxylase/17,20-lyase (CYP17) (Homo sapiens, UniProt P05093); test: In vitro inhibition of 17α-hydroxylase/17,20-lyase; assay type: biochemical; settings: mean of two experiments in duplicate
T1 sequence (P05093 1-508): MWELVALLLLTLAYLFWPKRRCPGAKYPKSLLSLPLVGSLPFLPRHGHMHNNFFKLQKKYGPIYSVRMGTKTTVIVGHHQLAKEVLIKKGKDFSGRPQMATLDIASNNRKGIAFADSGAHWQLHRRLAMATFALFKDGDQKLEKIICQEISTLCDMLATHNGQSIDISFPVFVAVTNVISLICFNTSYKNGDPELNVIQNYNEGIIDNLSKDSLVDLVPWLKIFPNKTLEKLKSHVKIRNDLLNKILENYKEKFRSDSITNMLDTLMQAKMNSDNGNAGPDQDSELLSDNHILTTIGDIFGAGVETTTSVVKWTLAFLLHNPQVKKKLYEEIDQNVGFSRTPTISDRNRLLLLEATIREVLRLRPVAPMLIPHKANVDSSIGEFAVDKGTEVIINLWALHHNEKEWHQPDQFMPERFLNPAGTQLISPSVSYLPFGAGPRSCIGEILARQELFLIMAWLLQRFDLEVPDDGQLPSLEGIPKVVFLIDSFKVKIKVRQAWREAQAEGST
Protocol: The assay was performed similar to described methods [29, 52]. […] Microsomal protein was added to start the reaction. […] After the addition of 1 mL EtOAc, the vials were shaken then centrifuged. The organic phase was removed, vortexed with phosphate buffer (250 µL), 1 M aqueous HCl (50 µL), and then dried. Aliquots of 25 µL methanol, containing 250 pmol of fluorocortisol acetate as internal standard, were added to the extracts. The samples (20 µL) were submitted to HPLC (RP-8 column, methanol/water 1:1, v/v) and measured using UV (240 nm).

C. albicans CA98001 = test: Anti-Candida in vitro assay (Alamar Blue), C. albicans CA98001; assay type: cell-based; settings: MIC = IC80, 24 h at 37 °C, mean of triplicate; for MIC: Candida albicans, CA98001, 24 h
Protocol: (§1) Test fungal strains were obtained from the American Type Culture Collection (ATCC) or were clinical isolates from the Laboratory of Parasitology and Medical Mycology, Centre Hospitalier Universitaire (CHU) of Nantes. The strains were maintained on Sabouraud agar slants and were subcultured 24 h before used. The activity of the target compounds 8a–g and 11a–m was determined by the method previously described. Briefly, molecules were diluted in RPMI 1640 medium supplemented with 0.165 M morpholinopropanesulphonic acid (Sigma-Aldrich, Saint-Quentin Fallavier, France), 2% glucose, and antibiotics. Candida suspensions were prepared in RPMI 1640 medium (Sigma-Aldrich, Saint-Quentin Fallavier, France) adjusted to give a final concentration of 10^3 cells/mL, and a 96-well microplate (Nunc, D. Dutscher, Brumath, France) was seeded with 100 µL. Each concentration of molecules (100 µL) to be tested was added (in triplicate) and plates were incubated at 37 °C for 24 h. The cellular viability was evaluated on the Fluorolite 1000 (Dynatech, France) with an excitation at 550 nm and an emission at 590 nm after a 4 h incubation with 10 µL of Alamar Blue®. […] MIC was expressed as the mean of the triplicate values. KTC and FLC were used as standards.

[2] = test system: ATCC90018 Candida parapsilosis strain; test: Anti-Candida in vitro assay, ATCC90018; assay type: cell-based; settings: Lodderomyces parapsilosis; Candida parapsilosis ATCC90018, mean of triplicate; read-out: MIC (IC80) ATCC90018
Protocol: as §1

aromatase (CYP19) = biological target: T2, aromatase (CYP19) (Homo sapiens, UniProt P11511); test: In vitro inhibition of aromatase; assay type: biochemical
T2 construct: Microsomal protein (0.1 mg) was added to start the reaction; from tissue; host or cells: microsomes; ('human placental microsomes')
T2 sequence (P11511 1-503): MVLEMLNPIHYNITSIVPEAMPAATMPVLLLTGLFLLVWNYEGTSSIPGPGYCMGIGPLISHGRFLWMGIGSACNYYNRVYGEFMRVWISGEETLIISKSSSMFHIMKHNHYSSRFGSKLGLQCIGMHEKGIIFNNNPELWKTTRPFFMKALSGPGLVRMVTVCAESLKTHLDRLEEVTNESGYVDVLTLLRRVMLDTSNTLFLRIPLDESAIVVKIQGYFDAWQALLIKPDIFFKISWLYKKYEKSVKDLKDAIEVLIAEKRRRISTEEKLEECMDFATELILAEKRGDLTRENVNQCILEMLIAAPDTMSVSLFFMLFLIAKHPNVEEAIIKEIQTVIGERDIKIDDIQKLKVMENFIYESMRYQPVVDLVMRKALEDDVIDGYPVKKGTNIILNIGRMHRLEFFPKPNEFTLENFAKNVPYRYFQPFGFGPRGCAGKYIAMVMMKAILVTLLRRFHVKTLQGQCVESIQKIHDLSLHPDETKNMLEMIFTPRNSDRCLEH
Protocol: The assay was performed according to previously described methods [49, 50, 51] by monitoring the enzyme activity by measuring the ^3H2O formed from [1β-^3H]androstenedione during aromatization. […] Microsomal protein (0.1 mg) was added to start the reaction. After incubation of 15 min at 30 °C, the reaction was stopped by adding 200 µL of a cold HgCl2 solution (1 mM). After the addition of 200 µL of an aqueous dextran-coated charcoal (DCC) suspension (2%), the vials were shaken then centrifuged to separate the charcoal-absorbed steroids. Aliquots of the supernatant were assayed for ^3H2O by counting in a scintillation mixture using a LKB-Wallac β-counter.

CK98002 (Candida krusei) = test: Anti-Candida in vitro assay, CK98002; assay type: cell-based; settings: Pichia kudriavzevii; Candida krusei CK98002, mean of triplicate; read-out: MIC (IC80) CK98002
Protocol: as §1

[3] = test system: human fetal lung fibroblast (MRC-5) cells; test: MRC5 toxicity assay; assay type: cell-based; settings: 96-h incubation, mean of triplicate, read-out: Cytotoxicity IC50 on MRC-5 cells
Protocol: (§2) The cytotoxicity of compounds was studied with human fibroblast (MRC5). Cells were grown in RPMI 1640 medium (Sigma-Aldrich, Saint-Quentin Fallavier, France) supplemented with 10% fetal bovin serum (Sigma–Aldrich). Drugs were tested at three concentrations (100, 10, and 1 µM) in triplicate. After a 96-h incubation time, cytotoxicity was measured on the Fluorolite 1000 (Dynatech, Guyancourt, France) after a 4-h incubation time with Uptiblue® (Interchim, Montluçon, France). Inhibitory concentration 50 is a mean of triplicate values. A toxicity index was determined as follow: IC50 against MRC5/Geometric mean of the MICs against Candida spp..

MRC5 toxicity assay = assay type: cell-based, human; settings: human, MRC-5 human fetal lung fibroblast cells, MRC-5 cells, 96-h incubation, mean of triplicate; read-out: Cytotoxicity IC50 on MRC-5 cells
Protocol: as §2

CK98003 (Candida krusei) = test: Anti-Candida in vitro assay, CK98003; assay type: cell-based; settings: Pichia kudriavzevii; Candida krusei CK98003, mean of triplicate; read-out: MIC (IC80) CK98003
Protocol: as §1

[4] = test system: ATCC2091 Candida albicans strain; test: Anti-Candida in vitro assay, ATCC2091; assay type: cell-based; settings: Candida albicans ATCC2091, mean of triplicate; read-out: MIC (IC80) ATCC2091
Protocol: as §1

[5] = test system: ATCC6258 Candida krusei strain; test: Anti-Candida in vitro assay, ATCC6258; assay type: cell-based; settings: Pichia kudriavzevii; Candida krusei ATCC6258, mean of triplicate; read-out: MIC (IC80) ATCC6258
Protocol: as §1

[6] = test system: CA98002 (Candida albicans); test: Anti-Candida in vitro assay, CA98002; assay type: cell-based; settings: Candida albicans CA98002, mean of triplicate; read-out: MIC (IC80) CA98002
Protocol: as §1

[7] = test system: CA98005 (Candida albicans); test: Anti-Candida in vitro assay, CA98005; assay type: cell-based; settings: Candida albicans CA98005, mean of triplicate; read-out: MIC (IC80) CA98005
Protocol: as §1

[8] = test system: CL98001 (Candida lusitaniae); test: Anti-Candida in vitro assay, CL98001; assay type: cell-based; settings: Clavispora lusitaniae; Candida lusitaniae CL98001, mean of triplicate; read-out: MIC (IC80) CL98001
Protocol: as §1

COc1ccc2c(c1)CCC(Cc1cnc[nH]1)=C2C [BW19, 4-(6-methoxy-1-methyl-3,4-dihydro-naphthalen-2-ylmethyl)-1H-imidazole, reference compound]
pIC50 [1]: 6.82

OC(Cn1cncn1)(Cn1ccc2ccccc21)c1ccc(F)cc1F (stereo not drawn) [Compound 11d, 2-(2,4-Difluorophenyl)-3-(1H-indol-1-yl)-1-(1H-1,2,4-triazol-1-yl)-propan-2-ol]
MIC (C. albicans CA98001): 0.0198 µg/mL (≈ 0.0559 µM)
MIC [2]: 0.201 µg/mL (≈ 0.567 µM)
inhibition at 36 µM (aromatase (CYP19); at 36 µM): 89%
pIC50 (aromatase (CYP19); mean of at least two experiments in duplicate): 5.45
MIC (CK98002 (Candida krusei)): 1.55 µg/mL (≈ 4.37 µM)
pIC50 [3]: ~3.71
IC50 at 96 h (MRC5 toxicity assay): > 100 µM
MIC (CK98003 (Candida krusei)): 24.1 µg/mL (≈ 67.9 µM)
MIC [4]: 0.021 µg/mL (≈ 0.0593 µM)
MIC [5]: 2.18 µg/mL (≈ 6.15 µM)
MIC [6]: 0.026 µg/mL (≈ 0.0734 µM)
MIC [7]: 0.064 µg/mL (≈ 0.181 µM)
MIC [8]: 0.021 µg/mL (≈ 0.0593 µM)
melting point: 119 to 120 °C

N#Cc1ccc(C2CCCc3cncn32)cc1 (stereo not drawn) [fadrozole, reference compound]
CYP17 IC50 [1]: not active

OC(Cn1cncn1)(Cn1ccc2ccccc21)c1ccc(Br)cc1 (stereo not drawn) [Compound 11c, 2-(4-Bromophenyl)-3-(1H-indol-1-yl)-1-(1H-1,2,4-triazol-1-yl)propan-2-ol]
MIC (C. albicans CA98001): 0.027 µg/mL (≈ 0.068 µM)
MIC [2]: 2.03 µg/mL (≈ 5.1 µM)
MIC (CK98002 (Candida krusei)): 2.46 µg/mL (≈ 6.2 µM)
IC50 at 96 h (MRC5 toxicity assay): 38 µM
MIC (CK98003 (Candida krusei)): 2.5 µg/mL (≈ 6.3 µM)
MIC [4]: 0.477 µg/mL (≈ 1.2 µM)
MIC [5]: 1.51 µg/mL (≈ 3.8 µM)
MIC [6]: 0.338 µg/mL (≈ 0.851 µM)
MIC [7]: 0.286 µg/mL (≈ 0.72 µM)
MIC [8]: 0.215 µg/mL (≈ 0.541 µM)
melting point: 186 to 187 °C

OC(Cn1cncn1)(Cn1ccc2ccccc21)c1ccc(F)cc1 (stereo not drawn) [Compound 11a, 2-(4-Fluorophenyl)-3-(1H-indol-1-yl)-1-(1H-1,2,4-triazol-1-yl)propan-2-ol]
MIC (C. albicans CA98001): 0.21 µg/mL (≈ 0.624 µM)
MIC (= IC80) C. albicans CA98001 (C. albicans CA98001): 0.21 µg/mL (≈ 0.624 µM)
MIC [2]: 2.52 µg/mL (≈ 7.5 µM)
MIC (CK98002 (Candida krusei)): 21.4 µg/mL (≈ 63.7 µM)
IC50 at 96 h (MRC5 toxicity assay): > 100 µM
MIC (CK98003 (Candida krusei)): 18.7 µg/mL (≈ 55.5 µM)
MIC [4]: 0.437 µg/mL (≈ 1.3 µM)
MIC [5]: 19.2 µg/mL (≈ 57.2 µM)
MIC [6]: 0.404 µg/mL (≈ 1.2 µM)
MIC [7]: 0.437 µg/mL (≈ 1.3 µM)
MIC [8]: 0.259 µg/mL (≈ 0.77 µM)
melting point: 190 to 191 °C

Cc1c(C)n(CC(O)(Cn2cncn2)c2ccc(Cl)cc2Cl)c2ccccc12 (stereo not drawn) [Compound 11k, 2-(2,4-Dichlorophenyl)-3-(2,3-dimethyl-1H-indol-1-yl)-1-(1H-1,2,4-triazol-1-yl)propan-2-ol]
MIC (C. albicans CA98001): 1.25 µg/mL (≈ 3 µM)
MIC [2]: 9.76 µg/mL (≈ 23.5 µM)
MIC (CK98002 (Candida krusei)): 20.2 µg/mL (≈ 48.7 µM)
pIC50 [3]: 4.01
IC50 at 96 h (MRC5 toxicity assay): ~97 µM
MIC (CK98003 (Candida krusei)): > 41.5 µg/mL
MIC [4]: 2.74 µg/mL (≈ 6.6 µM)
MIC [5]: 25.3 µg/mL (≈ 60.9 µM)
MIC [6]: 1.12 µg/mL (≈ 2.7 µM)
MIC [7]: 2.99 µg/mL (≈ 7.2 µM)
MIC [8]: 2.87 µg/mL (≈ 6.9 µM)
melting point: 123 to 124 °C

Cc1cn(CC(O)(Cn2cncn2)c2ccc(Cl)cc2Cl)c2ccccc12 (stereo not drawn) [Compound 11i, 2-(2,4-Dichlorophenyl)-3-(3-methyl-1H-indol-1-yl)-1-(1H-1,2,4-triazol-1-yl)propan-2-ol]
MIC (C. albicans CA98001): 0.007 µg/mL (≈ 0.0174 µM)
MIC [2]: 0.245 µg/mL (≈ 0.611 µM)
MIC (CK98002 (Candida krusei)): 0.803 µg/mL (≈ 2 µM)
IC50 at 96 h (MRC5 toxicity assay): 19 µM
MIC (CK98003 (Candida krusei)): 1.69 µg/mL (≈ 4.2 µM)
MIC [4]: 0.026 µg/mL (≈ 0.0648 µM)
MIC [5]: 3.01 µg/mL (≈ 7.5 µM)
MIC [6]: 0.044 µg/mL (≈ 0.11 µM)
MIC [7]: 0.03 µg/mL (≈ 0.0748 µM)
MIC [8]: 0.025 µg/mL (≈ 0.0623 µM)
melting point: 161 to 162 °C

OC(Cn1cncn1)(Cn1ccc2ccccc21)c1ccc(Cl)cc1 (stereo not drawn) [Compound 11b, 2-(4-Chlorophenyl)-3-(1H-indol-1-yl)-1-(1H-1,2,4-triazol-1-yl)propan-2-ol]
MIC (C. albicans CA98001): 0.024 µg/mL (≈ 0.068 µM)
MIC [2]: 2.05 µg/mL (≈ 5.8 µM)
MIC (CK98002 (Candida krusei)): 12.7 µg/mL (≈ 35.9 µM)
IC50 at 96 h (MRC5 toxicity assay): > 100 µM
MIC (CK98003 (Candida krusei)): 2.43 µg/mL (≈ 6.9 µM)
MIC [4]: 0.258 µg/mL (≈ 0.731 µM)
MIC [5]: 2.43 µg/mL (≈ 6.9 µM)
MIC [6]: 0.261 µg/mL (≈ 0.74 µM)
MIC [7]: 0.222 µg/mL (≈ 0.629 µM)
MIC [8]: 0.208 µg/mL (≈ 0.59 µM)
melting point: 188 to 189 °C

OC(Cn1ccnc1)(Cn1ccc2ccccc21)c1ccc(F)cc1 (stereo not drawn) [Compound 8a, 2-(4-Fluorophenyl)-1-(1H-imidazol-1-yl)-3-(1H-indol-1-yl)propan-2-ol]
MIC (C. albicans CA98001): 0.03 µg/mL (≈ 0.0895 µM)
MIC [2]: 2.11 µg/mL (≈ 6.29 µM)
MIC (CK98002 (Candida krusei)): 12.8 µg/mL (≈ 38 µM)
IC50 at 96 h (MRC5 toxicity assay): 50 µM
MIC (CK98003 (Candida krusei)): 28.6 µg/mL (≈ 85.3 µM)
MIC [4]: 0.131 µg/mL (≈ 0.391 µM)
MIC [5]: > 33.5 µg/mL
MIC [6]: 0.205 µg/mL (≈ 0.611 µM)
MIC [7]: 0.148 µg/mL (≈ 0.441 µM)
MIC [8]: 0.231 µg/mL (≈ 0.689 µM)
melting point: 166 to 167 °C
